Among the test systems are Escherichia coli K91BK; Escherichia coli B; Pseudomonas aeruginosa; Bacillus subtilis 168; Staphylococcus aureus.
Holding throughout (experiment): ≥ marks a high value that may be exact or a test limit, other limits are often not marked, values filed in µg/mL are converted to µM
Assay [1] relates to Staphylococcus aureus FDA 209P.
Assay [2] has as its system Bacillus subtilis ATCC 6633.
Assay [3] relates to Staphylococcus aureus NCTC 10788.
The test system of assay [4] is Candida albicans NCYC 1467.
Assay [5] has as its system Enterococcus faecalis NCTC 12697.
The subject of assay [6] is Escherichia coli NCTC 10418.
Assay [7] relates to Klebsiella pneumoniae ATCC 43816.
Assay [8] deals with Pseudomonas aeruginosa ATCC 27853.
In assay [9] the test system is Staphylococcus aureus NCTC 12493.
Assay [10] has as its system Bacillus anthracis Sterne 34F2.
Assay [11] concerns Bacillus subtilis var. niger ATCC 9372.
For assay [12], the system named is Staphylococcus epidermidis.
Assay [13] concerns Micrococcus luteus CCM 144.
The subject of assay [14] is Candida albicans F7-39/IDE99.
Assay [15] concerns Staphylococcus aureus ATCC 43300.
The test system of assay [16] is Shigella dysenteriae ATCC 9752.
Assay [17] concerns Escherichia coli ATCC 25922.
The subject of assay [18] is Salmonella enterica subsp. enterica serovar Typhimurium ATCC 14028.
For assay [19], the system named is Klebsiella pneumoniae ATCC 10031.
The test system of assay [20] is Staphylococcus epidermidis ATCC 12228.
Assay [21] has as its system Micrococcus luteus ATCC 10240.
Assay [22] has as its system Staphylococcus aureus ATCC 6538P.
The test system of assay [23] is Burkholderia thailandensis.

≈ marks a conversion by molar mass, not a printed value.

`CC[C@H](C)[C@H](NC(=O)[C@H](C)NC(=O)CNC(=O)[C@H](Cc1ccccc1)NC(=O)[C@H](CC(C)C)NC(=O)[C@H](CC(C)C)NC(=O)[C@@H]1CCCN1C(=O)[C@H](CC(C)C)NC(=O)[C@@H](N)Cc1ccccc1)C(=O)N[C@@H](CO)C(=O)N[C@@H](Cc1cnc[nH]1)C(=O)N[C@@H](CC(C)C)C(=O)N[C@@H](CC(C)C)C(N)=O` [FLPLLFGAISHLL]: the minimum inhibitory concentration (MIC) in assay [1] was 30.7 µM (≈ 44.3 µg/mL); in [2], no less than 44.4 µM.

In the case of `CC[C@H](C)[C@H](NC(=O)[C@H](C)NC(=O)[C@H](C)NC(=O)[C@@H]1CCCN1C(=O)[C@@H](NC(=O)[C@H](CC(C)C)NC(=O)[C@H](CO)NC(=O)[C@H](CC(C)C)NC(=O)[C@@H](N)Cc1ccccc1)[C@@H](C)CC)C(=O)N[C@@H](CO)C(=O)N[C@@H](C)C(=O)N[C@H](C(=O)N[C@@H](CO)C(=O)N[C@@H](C)C(=O)N[C@@H](CC(C)C)C(=O)N[C@@H](C)C(=O)N[C@@H](CC(N)=O)C(=O)N[C@@H](Cc1cnc[nH]1)C(=O)N[C@@H](Cc1ccccc1)C(N)=O)C(C)C` [FLSLIPAAISAVSALANHF], the MIC in [3] is no less than 33 µM; in assay [4], no less than 132 µM; in [5] it was no less than 264 µM; in assay [6], no less than 264 µM; in assay [7], no less than 512 µM; in [8], greater than 512 µM. In assay [9], this compound registered an MIC of no less than 33 µM.

With `CC[C@H](C)[C@H](NC(=O)CNC(C)=O)C(=O)NCC(=O)N[C@@H](CCCCN)C(=O)N[C@@H](Cc1cnc[nH]1)C(=O)N[C@H](C(=O)NCC(=O)N[C@@H](CCCCN)C(=O)N[C@@H](C)C(=O)N[C@@H](CC(C)C)C(=O)N[C@@H](CCCCN)C(=O)NCC(=O)N[C@@H](CC(C)C)C(=O)N[C@@H](CCCCN)C(=O)NCC(=O)N[C@@H](CC(C)C)C(=O)N[C@@H](CC(C)C)C(=O)N[C@@H](CCCCN)C(=O)NCC(=O)N[C@@H](CC(C)C)C(=O)NCC(=O)N[C@@H](CCC(=O)O)C(=O)N[C@@H](CO)C(N)=O)C(C)C` [GIGKHVGKALKGLKGLLKGLGES], the MIC (in [10]; in assay [11]; against Escherichia coli K91BK) was no less than 100 µM each time.

As for `CC[C@H](C)[C@H](NC(=O)CN)C(=O)N[C@@H](CCSC)C(=O)N[C@@H](CO)C(=O)N[C@@H](CO)C(=O)N[C@@H](CC(C)C)C(=O)N[C@@H](CCSC)C(=O)N[C@@H](CCCCN)C(=O)N[C@@H](CCCCN)C(=O)N[C@@H](CC(C)C)C(=O)N[C@@H](CCCCN)C(=O)N[C@@H](C)C(=O)N[C@@H](Cc1cnc[nH]1)C(=O)N[C@H](C(=O)N[C@@H](C)C(=O)N[C@@H](CCCCN)C(N)=O)[C@@H](C)CC` [GIMSSLMKKLKAHIAK], the MIC in the assay on Escherichia coli B turned out to be 30 µM (≈ 52.7 µg/mL); in assay [12] it was 16 µM (≈ 28.1 µg/mL); in the assay with Pseudomonas aeruginosa it was 47 µM (≈ 82.5 µg/mL); in the assay with Bacillus subtilis 168, 7 µM (≈ 12.3 µg/mL); in [13], 3 µM (≈ 5.27 µg/mL); in assay [8], 26 µM (≈ 45.6 µg/mL). The minimum inhibitory concentration (MIC) was greater than 100 µM against Staphylococcus aureus, 23 µM (≈ 40.4 µg/mL) in assay [14] and greater than 100 µM in [15].

On to `CC[C@H](C)[C@@H]1NC(=O)[C@H](C)NC(=O)[C@@H](NC(=O)[C@H](Cc2ccccc2)NC(=O)[C@@H](NC(=O)[C@H](CCCCN)NC(=O)[C@@H]2CCCN2C(=O)[C@H](CC(C)C)NC(=O)[C@H](Cc2ccccc2)NC(=O)[C@H](CCCCN)NC(=O)[C@@H](N)CCCCN)[C@@H](C)CC)CSSC[C@@H](C(=O)O)NC(=O)[C@H](CCCCN)NC(=O)[C@H](CCCCN)NC(=O)[C@H]([C@@H](C)O)NC1=O` [KKFLPKIFCAITKKC], for which the MIC in assay [3] is 8 µM (≈ 14.1 µg/mL); in [4], no less than 32 µM; in [5] it was no less than 512 µM; in assay [6], 16 µM (≈ 28.3 µg/mL); in assay [7], no less than 128 µM; in assay [8] it was 256 µM (≈ 452 µg/mL). The same compound displayed an MIC in assay [9] of 16 µM (≈ 28.3 µg/mL).

Take `CC(C)C[C@H](NC(=O)[C@H](CC(C)C)NC(=O)[C@H](CCCCN)NC(=O)[C@H](CC(C)C)NC(=O)[C@H](CC(C)C)NC(=O)[C@H](Cc1c[nH]c2ccccc12)NC(=O)[C@H](CCCCN)NC(=O)[C@H](CC(C)C)NC(=O)[C@H](CC(C)C)NC(=O)[C@H](CCCCN)NC(=O)[C@@H](N)CC(C)C)C(N)=O` [LKLLKWLLKLL]: the MIC in assay [16] is 9.05 µM (≈ 12.5 µg/mL); in assay [17], 36.2 µM (≈ 50 µg/mL); in assay [18], greater than 145 µM; in assay [19], no less than 36.2 µM; in [20] it was 2.25 µM (≈ 3.1 µg/mL); in assay [2] it was 1.16 µM (≈ 1.6 µg/mL). For the same compound, the MIC in [8] was greater than 145 µM; in [21], 2.25 µM (≈ 3.1 µg/mL); in assay [22], 2.25 µM (≈ 3.1 µg/mL).

For `CC[C@H](C)[C@H](NC(=O)CNC(=O)[C@H](C)NC(=O)[C@H](Cc1c[nH]c2ccccc12)NC(=O)[C@H](CC(C)C)NC(=O)[C@@H](N)CC(N)=O)C(=O)N[C@@H](CC(C)C)C(=O)N[C@@H](CCCCN)C(=O)N[C@@H](Cc1cnc[nH]1)C(=O)N[C@H](C(=O)N[C@H](C(=O)N[C@@H](CCCCN)C(N)=O)[C@@H](C)CC)[C@@H](C)CC` [NLWAGILKHIIK], the MIC against Escherichia coli B was 12.5 µM (≈ 17.6 µg/mL); in the assay with Pseudomonas aeruginosa, greater than 100 µM; in the assay on Bacillus subtilis 168, 4.5 µM (≈ 6.32 µg/mL); in assay [13] it was 2.5 µM (≈ 3.51 µg/mL); in the assay on Staphylococcus aureus, 36.7 µM (≈ 51.6 µg/mL); in assay [14] it was 10.8 µM (≈ 15.2 µg/mL).

For `CC[C@H](C)[C@H](NC(=O)[C@H](CCCCN)NC(=O)[C@H](CCCN=C(N)N)NC(=O)CNC(=O)[C@H](CC(C)C)NC(=O)[C@H](CCCN=C(N)N)NC(=O)[C@H](CCCN=C(N)N)NC(=O)[C@H](CC(C)C)NC(=O)CNC(=O)[C@H](CCCN=C(N)N)NC(C)=O)C(=O)N[C@@H](C)C(=O)N[C@@H](Cc1cnc[nH]1)C(=O)NCC(=O)N[C@H](C(=O)N[C@@H](CCCCN)C(=O)N[C@@H](CCCCN)C(=O)NCC(=O)NCC(=O)N1CCC[C@H]1C(=O)N[C@H](C(=O)N[C@H](C(=O)N[C@@H](CC(C)C)C(=O)N[C@@H](CCCN=C(N)N)C(=O)N[C@H](C(=O)N[C@H](C(=O)N[C@@H](CCCN=C(N)N)C(=O)N[C@H](C(=O)N[C@@H](C)C(=O)NCC(N)=O)[C@@H](C)CC)[C@@H](C)CC)[C@@H](C)CC)C(C)C)[C@@H](C)O)C(C)C` [RGLRRLGRKIAHGVKKGGPTVLRIIRIAG], the MIC in assay [10] was no less than 70.2 µM; in assay [11], 7.87 µM (≈ 25.1 µg/mL); in [23] it was no less than 100 µM; against Escherichia coli K91BK, no less than 100 µM.

As for `CC[C@H](C)[C@H](NC(=O)[C@H](CCCCN)NC(=O)[C@H](CCCN=C(N)N)NC(=O)[C@H](CCCCN)NC(=O)[C@H](CC(C)C)NC(=O)[C@H](CCCN=C(N)N)NC(=O)[C@H](CCCN=C(N)N)NC(=O)[C@H](CC(C)C)NC(=O)[C@H](CCCCN)NC(=O)[C@H](CCCN=C(N)N)NC(C)=O)C(=O)N[C@@H](C)C(=O)N[C@@H](Cc1cnc[nH]1)C(=O)N[C@@H](CCCCN)C(=O)N[C@H](C(=O)N[C@@H](CCCCN)C(=O)N[C@@H](CCCCN)C(=O)N[C@@H](Cc1ccc(O)cc1)C(N)=O)C(C)C` [RKLRRLKRKIAHKVKKY], the minimum inhibitory concentration (MIC) in assay [10] is no less than 100 µM; in assay [11] it was no less than 57.4 µM; in assay [23] it was no less than 100 µM; against Escherichia coli K91BK, no less than 100 µM.

For the origin of these results see DBAASP.
